According to PubChem BioAssay AID330 (DTP/NCI, 2004):
Where “and” joins values, the source holds several entries; their conditions need not be identical. Equal values may be shown once. Toxic doses and inconclusive results are not listed. How the source made its calls: active means survival T/C of 150% or more; inactive means T/C below 125% in these data.

Tested on: P388 leukemia ip, CD2F1 mice, survival T/C
Test: NCI In Vivo Anticancer Drug Screen. Data for tumor model P388 Leukemia (intraperitoneal) in CD2F1 (CDF1) mice
Settings: endpoint: median survival time, higher = longer survival
In short: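 Mice carrying the transplanted tumor received test compound or vehicle. Survival was recorded in each group, and the value is the treated-group measurement divided by that of the vehicle-treated control group.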

[1] = dose: 50.0 mg/kg/injection, schedule: Q01DX009 (ip), vehicle: saline with Tween-80
[2] = dose: 100.0 mg/kg/injection, schedule: Q01DX009 (ip), vehicle: saline with Tween-80
[3] = dose: 12.5 mg/kg/injection, schedule: Q01DX009 (ip), vehicle: saline
[4] = dose: 25.0 mg/kg/injection, schedule: Q01DX009 (ip), vehicle: saline
[5] = dose: 200.0 mg/kg/injection, schedule: Q01DX009 (ip), vehicle: saline with Tween-80
[6] = dose: 400.0 mg/kg/injection, schedule: Q01DX009 (ip), vehicle: saline with Tween-80
[7] = dose: 100.0 mg/kg/injection, schedule: Q04DX003 (ip), vehicle: saline
[8] = dose: 200.0 mg/kg/injection, schedule: Q04DX003 (ip), vehicle: saline
[9] = dose: 400.0 mg/kg/injection, schedule: Q04DX003 (ip), vehicle: saline
[10] = dose: 120.0 mg/kg/injection, schedule: Q01DX005 (ip), vehicle: saline with Tween-80
[11] = dose: 240.0 mg/kg/injection, schedule: Q01DX005 (ip), vehicle: saline with Tween-80
[12] = dose: 50.0 mg/kg/injection, schedule: Q01DX005 (ip), vehicle: Klucel (hydroxypropylcellulose) (HPC)
[13] = dose: 100.0 mg/kg/injection, schedule: Q01DX005 (ip), vehicle: Klucel (hydroxypropylcellulose) (HPC)
[14] = dose: 200.0 mg/kg/injection, schedule: Q01DX005 (ip), vehicle: Klucel (hydroxypropylcellulose) (HPC)
[15] = dose: 50.0 mg/kg/injection, schedule: Q01DX005 (ip), vehicle: saline with Tween-80
[16] = dose: 100.0 mg/kg/injection, schedule: Q01DX005 (ip), vehicle: saline with Tween-80
[17] = dose: 200.0 mg/kg/injection, schedule: Q01DX005 (ip), vehicle: saline with Tween-80
[18] = dose: 50.0 mg/kg/injection, schedule: Q01DX009 (ip), vehicle: saline

Measured: T/C

O=c1[nH]cc(S)c(=O)[nH]1
inactive: dose: 25.0 mg/kg/injection, schedule: Q01DX009 (ip), vehicle: saline with Tween-80 105 % of control | [1] 100 % of control | dose: 50.0 mg/kg/injection, schedule: Q04DX003 (ip), vehicle: saline with Tween-80 100 % of control | [2] 110 % of control | dose: 100.0 mg/kg/injection, schedule: Q04DX003 (ip), vehicle: saline with Tween-80 100 % of control

COc1cccc2c1C(=O)c1c(O)c3c(c(O)c1C2=O)CC(O)(C(C)=O)CC3OC1CC(NC2=CC(=O)CC(C)(C)C2)C(O)C(C)O1 (centres undefined)
inactive: dose: 3.13 mg/kg/injection, schedule: Q04DX003 (ip), vehicle: distilled water + Tween-80 103 % of control | dose: 6.25 mg/kg/injection, schedule: Q04DX003 (ip), vehicle: distilled water + Tween-80 103 % of control | dose: 12.5 mg/kg/injection, schedule: Q04DX003 (ip), vehicle: distilled water + Tween-80 100 % of control | dose: 25.0 mg/kg/injection, schedule: Q04DX003 (ip), vehicle: distilled water + Tween-80 100 % of control | dose: 50.0 mg/kg/injection, schedule: Q04DX003 (ip), vehicle: distilled water + Tween-80 109 % of control

C1=Nc2ccccc2N=Cc2ccccc2NCCNc2ccccc21
inactive: dose: 6.25 mg/kg/injection, schedule: Q01DX009 (ip), vehicle: saline 98 % of control | [3] 101 % of control | [4] 92 % of control

CC(C)OC(=S)NC(=O)c1ccccc1
inactive: [1] 109 % of control | [2] 100 % of control | [5] 103 % of control | [6] 108 % of control

OCC(F)(F)C(F)(F)C(F)(F)CO
inactive: [7] 100 % of control | [8] 100 % of control | [9] 100 % of control

CC1(C)C(=O)N2C(=O)CC(=O)N2C1=O
inactive: [10] 97 % of control | [11] 93 % of control

CC(C(O)c1cc2c(c3ccccc13)CCCC2)N1CCOCC1 (centres undefined)
inactive: dose: 100.0 mg/kg/injection, schedule: Q01DX009 (ip), vehicle: suspension in saline 104 % of control | dose: 200.0 mg/kg/injection, schedule: Q01DX009 (ip), vehicle: suspension in saline 99 % of control | dose: 400.0 mg/kg/injection, schedule: Q01DX009 (ip), vehicle: suspension in saline 104 % of control

O=C(O)CCCc1ccccc1[N+](=O)[O-]
inactive: [1] 105 % of control | [2] 105 % of control | [5] 103 % of control | [6] 105 % of control

CCOC(=O)\C(C#N)=C/C=C/C(C)=C/Nc1ccc([N+](=O)[O-])cc1[N+](=O)[O-]
inactive: [12] 91 % of control | [13] 91 % of control | [14] 102 % of control

O=[N+]([O-])c1cccc(S(=O)(=O)N/N=C\c2cc([N+](=O)[O-])ccc2O)c1
inactive: [15] 107 % of control | [16] 100 % of control | [17] 97 % of control

O=S(=O)(O)CNc1cccc(Cl)c1
inactive: [1] 106 % of control | [2] 95 % of control | [5] 98 % of control

O=S1(=O)CC(Sc2ccccc2)C1
inactive: dose: 100.0 mg/kg/injection, schedule: Q01DX001 (ip), vehicle: saline with Tween-80 102 % of control | dose: 200.0 mg/kg/injection, schedule: Q01DX001 (ip), vehicle: saline with Tween-80 96 % of control | dose: 400.0 mg/kg/injection, schedule: Q01DX001 (ip), vehicle: saline with Tween-80 109 % of control

CC(=O)OC1CCN(C)CC1CCl (centres undefined)
inactive: [3] 110 % of control | [4] 105 % of control | [18] 105 % of control and 114 % of control

O=C1C=C2OCOC2=CC1=O
inactive: dose: 4.38 mg/kg/injection, schedule: Q01DX005 (ip), vehicle: Klucel (hydroxypropylcellulose) (HPC) 100 % of control | dose: 8.75 mg/kg/injection, schedule: Q01DX005 (ip), vehicle: Klucel (hydroxypropylcellulose) (HPC) 99 % of control | dose: 17.5 mg/kg/injection, schedule: Q01DX005 (ip), vehicle: Klucel (hydroxypropylcellulose) (HPC) 103 % of control and 104 % of control

O=C([O-])CC(=O)[O-].[Cu+2].c1ccc(-c2ccccn2)nc1
inactive: dose: 6.25 mg/kg/injection, schedule: Q01DX005 (ip), vehicle: saline with Tween-80 101 % of control | dose: 12.5 mg/kg/injection, schedule: Q01DX005 (ip), vehicle: saline with Tween-80 99 % of control | dose: 25.0 mg/kg/injection, schedule: Q01DX005 (ip), vehicle: saline with Tween-80 108 % of control

CCNC(=O)N(CC(N)=O)c1ncc([N+](=O)[O-])s1
inactive: dose: 6.25 mg/kg/injection, schedule: Q01DX001 (ip), vehicle: saline 105 % of control | dose: 12.5 mg/kg/injection, schedule: Q01DX001 (ip), vehicle: saline 103 % of control | dose: 25.0 mg/kg/injection, schedule: Q01DX001 (ip), vehicle: saline 104 % of control | dose: 50.0 mg/kg/injection, schedule: Q01DX001 (ip), vehicle: saline 100 % of control and 103 % of control | dose: 100.0 mg/kg/injection, schedule: Q01DX001 (ip), vehicle: saline 106 % of control and 97 % of control

COc1cccc2cc(-c3c[nH]c4ccccc34)c(=O)oc12
inactive: dose: 60.0 mg/kg/injection, schedule: Q01DX005 (ip), vehicle: saline with Tween-80 105 % of control | [10] 98 % of control | [11] 95 % of control

CC(C)CNCC(=O)Nc1ccc(-c2ccc(NC(=O)CNCC(C)C)cc2)cc1
inactive: [12] 97 % of control | [13] 97 % of control | [14] 95 % of control

Cc1ccc(N=Nc2c(O)n(-c3ccccc3C)c(=S)n(-c3ccccc3Cl)c2=O)cc1
inactive: dose: 100.0 mg/kg/injection, schedule: Q01DX001 (ip), vehicle: Klucel (hydroxypropylcellulose) (HPC) 101 % of control | dose: 200.0 mg/kg/injection, schedule: Q01DX001 (ip), vehicle: Klucel (hydroxypropylcellulose) (HPC) 103 % of control | dose: 400.0 mg/kg/injection, schedule: Q01DX001 (ip), vehicle: Klucel (hydroxypropylcellulose) (HPC) 104 % of control

CCOC(=O)CNc1sc(=S)[nH]c1C(=O)OCC
inactive: [12] 100 % of control | [13] 91 % of control | [14] 92 % of control

CCOC(=O)CCCCCN(/C=C(\C)CN1c2c(nc(N)[nH]c2=O)NCC1CNc1ccc(C(=O)NC(CCC(=O)O)C(=O)O)cc1)C(C)=O (centres undefined)
inactive: dose: 50.0 mg/kg/injection, schedule: Q01DX001 (ip), vehicle: sodium bicarbonate 99 % of control | dose: 100.0 mg/kg/injection, schedule: Q01DX001 (ip), vehicle: sodium bicarbonate 100 % of control | dose: 200.0 mg/kg/injection, schedule: Q01DX001 (ip), vehicle: sodium bicarbonate 100 % of control

C/C(=N\NC(=S)Nc1cccc(F)c1)c1ccccn1
inactive: [15] 109 % of control | [16] 112 % of control | [17] 119 % of control

C[C@@]12O[C@]1(C)[C@@H]1[C@H]3O[C@H]3[C@@H]2N(C(=O)OCC(Cl)(Cl)Cl)N1C(=O)OCC(Cl)(Cl)Cl
inactive: [12] 100 % of control | [13] 105 % of control | [14] 100 % of control

N/C(=N\O)c1nc2c(N)nc(-c3ccccc3)nc2nc1N
inactive: dose: 37.5 mg/kg/injection, schedule: Q01DX009 (ip), vehicle: saline with Tween-80 109 % of control | dose: 75.0 mg/kg/injection, schedule: Q01DX009 (ip), vehicle: saline with Tween-80 95 % of control | dose: 150.0 mg/kg/injection, schedule: Q01DX009 (ip), vehicle: saline with Tween-80 97 % of control

NC/C(=N\Nc1ccc([N+](=O)[O-])cc1[N+](=O)[O-])c1ccccc1
inactive: [7] 100 % of control | [8] 113 % of control | [9] 95 % of control

Nc1nc(SCC(=O)O)[nH]c(=O)c1NS(=O)(=O)c1cccc([N+](=O)[O-])c1
inactive: dose: 60.0 mg/kg/injection, schedule: Q01DX005 (ip), vehicle: Klucel (hydroxypropylcellulose) (HPC) 96 % of control | dose: 120.0 mg/kg/injection, schedule: Q01DX005 (ip), vehicle: Klucel (hydroxypropylcellulose) (HPC) 93 % of control | dose: 240.0 mg/kg/injection, schedule: Q01DX005 (ip), vehicle: Klucel (hydroxypropylcellulose) (HPC) 93 % of control

O=[N+]([O-])c1cc(NC(=S)SC2CCCCC2)ccc1Cl
inactive: [4] 107 % of control and 108 % of control | [18] 100 % of control and 104 % of control and 93 % of control | dose: 100.0 mg/kg/injection, schedule: Q01DX009 (ip), vehicle: saline 102 % of control and 110 % of control and 90 % of control | dose: 200.0 mg/kg/injection, schedule: Q01DX009 (ip), vehicle: saline 100 % of control and 104 % of control and 122 % of control
